The OPERA property sets (Mansouri et al. 2018)
Where a SMILES comes first, the peptide text is derived from it.

Row | Structure (SMILES) | logP
1 | OCCCCNc1ncnc2c1ncn2C1OC(CO)C(O)C1O (centres undefined) | -0.62
2 | CCOc1ccc(C(=O)OCCCn2ccc(=O)c(O)c2C)cc1 | 1.79
3 | CCNC1CCc2c(OC)cccc2C1C (centres undefined) | 2.67
4 | COC(=O)CNC(=O)Cn1c(C)nc2ccccc2c1=O | 0.4
5 | CC1(C)SC2C(NC(=O)C(c3ccccc3)S(=O)(=O)O)C(=O)N2C1C(=O)O (centres undefined) | -0.22
6 | Cc1cc2c(nn1)-c1ccccc1C2=O | 1.58
7 | COC(=O)C1=C(C)NC(C)=C(C(=O)OC)C1c1cccc2c1OCO2 | 3.46
8 | COc1cccc(-n2nnnc2N)c1 | 0.96
9 | CCCCCCCCCCCCCCc1ccccc1 | 9.95
10 | CN(C)CCOC(=O)c1ccc(S(C)(=O)=O)cc1 | 0.45
11 | CCS(=O)(=O)n1cc(-c2ccc(Cl)cc2)c(N2CCOCC2)c1C(=O)OC | 4.2
12 | CNC(=O)Nc1ccc(C(=O)O)cc1 | 1.1
13 | COc1ccc(C2=NC(C)(C(=O)O)CS2)c(O)c1 (centres undefined) | 1.7
14 | Cc1cc2c(C)cc3oc(=O)cc(C)c3c2o1 | 3.25
15 | CCCC(=NOCC)C1=C(O)CC2(CCCC2)OC1=O | 3.22
16 | Cc1cc2c(o1)c(C)c(C)c1ccc(=O)oc12 | 3.26
17 | Cc1cc(C)cc(OCC2CN=C(N)O2)c1 (centres undefined) | 2.25
18 | CCCN(CCCC(NC(C)=O)C(=O)NCc1ccccc1)C(=O)N(CCCl)N=O (centres undefined) | 1.57
19 | COc1ccc(C2Cc3cc(Cl)ccc3N(CCN(C)C)C(=O)C2OC(C)=O)cc1 (centres undefined) | 4.2
20 | CC(C)CC(N)C(=O)NC(CC(C)C)C(=O)NC(CC(C)C)C(=O)O (stereo not drawn) (H-Leu-Leu-Leu-OH; configuration not given here) | -0.94
21 | C=CCC(C)(C(=O)OCC)S(=O)(=O)c1ccc([N+](=O)[O-])cc1 (centres undefined) | 2.3
22 | Oc1ccccc1CNc1ncnc2nc[nH]c12 | 2.05
23 | CSCCC(N)C(=O)NC(Cc1c[nH]c2ccccc12)C(=O)O (centres undefined) | -1.5
24 | O=S(=O)(NC(=S)NC1CCCCC1)c1cnccc1NC1CCCCCCC1 | 5.04
25 | Cc1oc2cc3oc(=O)ccc3cc2c1C | 2.93
26 | CC(C)(C)[N+]([O-])=Cc1cccc(O)c1 | 1
27 | CCOc1ccc(N)c(OCC)c1 | 2.19

Row | Structure (SMILES) | logP
28 | Cn1cc(-c2ccc(Cl)cc2)c(N2CCOCC2)c1 | 4.2
29 | CCOP(=O)(OCC)C(C)(C)[N+]([O-])=Cc1c(OC)cc(OC)cc1OC | 1.03
30 | Cc1cc(=O)c(O)c(CNC(=O)C(C)C)n1C | -0.35
31 | CCOC(=O)c1cnc2ccc(C)cn2c1=O | 0.9
32 | CC(Cl)C(=O)Nc1ccc(C2=NNC(=O)CC2C)cc1 (centres undefined) | 1.4
33 | CC(=O)NC(CCCN(Cc1ccccc1)C(=O)N(CCCl)N=O)C(=O)NCc1ccccc1 (centres undefined) | 1.92
34 | CC(=O)Nc1ccc(/C=C/c2n[nH]c(=O)cc2C)cc1 | 1.27
35 | OCC1OC(Oc2ccc(F)cc2)C(O)C(O)C1O (centres undefined) | -0.42
36 | Cc1coc2c1c(C)cc1oc(=O)cc(C)c12 | 3.28
37 | c1ccc(Nc2nnc(Cn3ccc4ccccc43)s2)cc1 | 3.47
38 | CC(C(=O)O)c1ccc(N2CC3CCCCC3C2=O)cc1 (centres undefined) | 3.15
39 | O=C(c1c(O)c2ccc(Cl)cc2[nH]c1=O)C1CC1 | 2.35
40 | NC1=NCC(CN2CCN(c3ccccc3F)CC2)O1 (centres undefined) | 1.06
41 | CC(C)(C)[N+]([O-])=Cc1ccccc1O | 1.3
42 | CN1CCc2ccccc2C1 | 2.14
43 | O=C(O)c1cc(O)c(Br)c(O)c1 | 1.75
44 | CCc1cccc(C)c1NC(=O)OC | 1.99
45 | CNc1ncnc2[nH]cnc12 | 0.43
46 | O=C(c1ccccc1)c1ccnnc1 | 1.09
47 | Nc1nnnn1-c1cccc(O)c1 | 0.56
48 | CCCOc1cccc(NC(=O)OCCN2CCCCC2)c1 | 4.48
49 | CC(=O)Oc1coc(CBr)cc1=O | 0.51
50 | Cn1c([N+](=O)[O-])cnc1C=NNC(N)=S | 0.65
51 | CC(C)Nc1ncnc2c1ncn2C1OC(CO)C(O)C1O (centres undefined) | 0.48
52 | CCOC(=O)C(CCc1ccccc1)NC(C)C(=O)N1N=C(C(C)(C)C)SC1C(=O)O (centres undefined) | 1.62
53 | CCNC(=S)NN=C(c1cccc([N+](=O)[O-])c1)c1ccccn1 | 2.53
54 | Cc1ccc(CO)c(C=NNC(=O)c2ccc(N)cc2)c1O | 2.16
